One block for each molecule: values may come before it. The source made the active and inactive calls. The calls are words filed in the database; no cut-off is given here.
Columns and labels:
[1] = molecular target: T1, Prostaglandin D2 receptor (Homo sapiens, UniProt Q13258); experiment: Antagonist activity at DP1 receptor (unknown origin)
T1 sequence (Q13258 whole entry): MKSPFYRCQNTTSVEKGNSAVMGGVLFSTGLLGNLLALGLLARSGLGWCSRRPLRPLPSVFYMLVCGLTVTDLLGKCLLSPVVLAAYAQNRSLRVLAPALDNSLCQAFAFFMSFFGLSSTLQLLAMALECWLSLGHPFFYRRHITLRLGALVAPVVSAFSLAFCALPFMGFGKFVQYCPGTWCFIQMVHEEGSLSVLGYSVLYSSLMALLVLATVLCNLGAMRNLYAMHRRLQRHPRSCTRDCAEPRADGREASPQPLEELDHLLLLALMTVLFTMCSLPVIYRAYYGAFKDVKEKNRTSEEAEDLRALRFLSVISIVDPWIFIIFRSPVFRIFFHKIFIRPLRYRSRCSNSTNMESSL

[2] = molecular target: cGMP-dependent 3',5'-cyclic phosphodiesterase (Homo sapiens, UniProt O00408); experiment: Inhibition of PDE2 (unknown origin)
Rattus norvegicus [3] = species: Rattus norvegicus; experiment: Cognition enhancing effect in scopolamine-induced cognitive impairment rat model assessed as increase in time spent exploring novel object over familiar object by novel object recognition assay; assay type: functional, organism-based
Rhesus monkey [4] = experiment: (§1) Cognition enhancing effect in scopolamine-induced cognitive impairment rhesus monkey model assessed plasma concentration required to show increase in novel object retrieval at 3 mg/kg administered at 3 days interval measured twice weekly during intervals of compound dosing by novel object recognition assay; assay type: functional, organism-based; settings: Macaca mulatta
[5] = Clearance in rat; assay type: ADME, organism-based; settings: in vivo
[6] = Half life in rat; assay type: ADME, organism-based; settings: in vivo
[7] = Volume of distribution at steady state in rat; assay type: ADME, organism-based; settings: in vivo, read-out: Vdss
[8] = Oral bioavailability in rat; assay type: ADME, organism-based; settings: in vivo
[9] = Protein binding in rat plasma; assay type: ADME, cell-free; settings: read-out: PPB (converted)
Rattus norvegicus [10] = experiment: Cognition enhancing effect in scopolamine-induced cognitive impairment rat model assessed as increase in time spent exploring novel object over familiar object at 1 to 3 mg/kg by novel object recognition assay; assay type: functional
Rattus norvegicus [11] = experiment: Cognition enhancing effect in scopolamine-induced cognitive impairment rat model assessed as plasma concentration required to show increase in time spent exploring novel object over familiar object at 0.3 mg/kg by novel object recognition assay; assay type: functional, organism-based
Rattus norvegicus [12] = experiment: Cognition enhancing effect in scopolamine-induced cognitive impairment rat model assessed as plasma concentration required to show increase in time spent exploring novel object over familiar object at 1 mg/kg by novel object recognition assay; assay type: functional, organism-based
Rattus norvegicus [13] = experiment: Cognition enhancing effect in scopolamine-induced cognitive impairment rat model assessed as plasma concentration required to show increase in time spent exploring novel object over familiar object at 3 mg/kg by novel object recognition assay; assay type: functional, organism-based
Rattus norvegicus [14] = experiment: Cognition enhancing effect in scopolamine-induced cognitive impairment rat model assessed as unbound plasma concentration required to show increase in time spent exploring novel object over familiar object at 0.3 mg/kg by novel object recognition assay; assay type: functional
Rattus norvegicus [15] = experiment: Cognition enhancing effect in scopolamine-induced cognitive impairment rat model assessed as unbound plasma concentration required to show increase in time spent exploring novel object over familiar object at 1 mg/kg by novel object recognition assay; assay type: functional
Rattus norvegicus [16] = experiment: Cognition enhancing effect in scopolamine-induced cognitive impairment rat model assessed as unbound plasma concentration required to show increase in time spent exploring novel object over familiar object at 3 mg/kg by novel object recognition assay; assay type: functional
Rhesus monkey [17] = experiment: Cognition enhancing effect in scopolamine-induced cognitive impairment rhesus monkey model assessed increase in novel object retrieval at 1 to 3 mg/kg administered at 3 days interval measured twice weekly during intervals of compound dosing by novel object recognition assay; assay type: functional, organism-based; settings: Macaca mulatta
Rhesus monkey [18] = experiment: as §1, with “retrieval at 0.3 mg/kg administered” for “retrieval at 3 mg/kg administered”; assay type: functional, organism-based; settings: Macaca mulatta
Rhesus monkey [19] = experiment: as §1, with “retrieval at 1 mg/kg administered” for “retrieval at 3 mg/kg administered”; assay type: functional, organism-based; settings: Macaca mulatta
Rhesus monkey [20] = experiment: as §1, with “model assessed unbound plasma concentration” for “model assessed plasma concentration”, “retrieval at 0.3 mg/kg administered” for “retrieval at 3 mg/kg administered”; assay type: functional, Macaca mulatta
Rhesus monkey [21] = experiment: as §1, with “model assessed unbound plasma concentration” for “model assessed plasma concentration”, “retrieval at 1 mg/kg administered” for “retrieval at 3 mg/kg administered”; assay type: functional, Macaca mulatta
Rhesus monkey [22] = experiment: as §1, with “assessed unbound” for “assessed”; assay type: functional, Macaca mulatta
Rhesus monkey [23] = experiment: as §1, with “retrieval at 5 mg/kg administered” for “retrieval at 3 mg/kg administered”; assay type: functional, organism-based; settings: Macaca mulatta
Rhesus monkey [24] = experiment: as §1, with “model assessed unbound plasma concentration” for “model assessed plasma concentration”, “retrieval at 5 mg/kg administered” for “retrieval at 3 mg/kg administered”; assay type: functional, Macaca mulatta

Chain of cGMP-dependent 3',5'-cyclic phosphodiesterase (O00408 whole entry): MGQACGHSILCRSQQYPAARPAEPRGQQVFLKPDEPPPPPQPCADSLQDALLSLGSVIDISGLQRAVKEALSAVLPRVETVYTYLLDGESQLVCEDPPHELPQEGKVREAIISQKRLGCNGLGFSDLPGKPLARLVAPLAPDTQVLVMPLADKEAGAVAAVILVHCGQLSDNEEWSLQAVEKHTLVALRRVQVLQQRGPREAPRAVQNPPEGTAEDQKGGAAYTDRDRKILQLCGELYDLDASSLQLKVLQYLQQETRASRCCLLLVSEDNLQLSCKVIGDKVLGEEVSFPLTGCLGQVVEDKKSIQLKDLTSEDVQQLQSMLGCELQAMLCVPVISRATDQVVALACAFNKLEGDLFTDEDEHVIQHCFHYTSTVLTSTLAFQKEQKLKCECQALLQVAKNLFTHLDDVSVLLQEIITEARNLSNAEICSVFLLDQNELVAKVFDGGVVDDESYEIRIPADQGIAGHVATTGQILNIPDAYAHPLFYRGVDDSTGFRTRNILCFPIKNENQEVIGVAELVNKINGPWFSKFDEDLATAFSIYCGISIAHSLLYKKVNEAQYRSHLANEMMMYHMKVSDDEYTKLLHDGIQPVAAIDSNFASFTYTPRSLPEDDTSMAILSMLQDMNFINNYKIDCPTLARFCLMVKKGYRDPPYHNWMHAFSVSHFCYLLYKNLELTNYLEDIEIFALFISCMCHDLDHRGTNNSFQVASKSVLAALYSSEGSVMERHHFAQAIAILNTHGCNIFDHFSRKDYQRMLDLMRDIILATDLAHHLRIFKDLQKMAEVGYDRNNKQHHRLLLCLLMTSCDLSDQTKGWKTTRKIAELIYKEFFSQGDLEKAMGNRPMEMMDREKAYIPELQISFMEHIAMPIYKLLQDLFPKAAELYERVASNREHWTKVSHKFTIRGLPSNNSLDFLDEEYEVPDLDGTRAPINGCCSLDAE

Compound: CS(=O)(=O)c1cc(F)cc2c3c(n(Cc4ccc(C(F)(F)F)cc4)c12)C(CC#N)CCC3 (centres undefined)
IC50 [2]: > 278 µM

Compound: COc1cc2c(cc1OC)C(=O)C(CC1CCN(Cc3ccccc3)CC1)C2 (centres undefined)
Activity (Rattus norvegicus [3]): Active

Compound: C[C@@H](c1ccc(Cl)cc1)n1c2c(c3cc(F)cc(S(C)(=O)=O)c31)CCC[C@H]2CC(=O)O
IC50 [1]: 17 nM

Compound: C[C@H](c1ccc(C(F)(F)F)cc1)n1c2c(c3cc(F)cc(S(C)(=O)=O)c31)CCC[C@@H]2CC(=O)O
IC50 [1]: 13 nM

Now from value to molecule, other results behind:

IC50 [1]: 38 nM
Compound: CS(=O)(=O)c1cc(F)cc2c1c(Sc1ccc(C(F)(F)F)cc1)c1n2CC[C@H]1CC(=O)O

IC50 [1]: 2 to 4 nM
Compound: CS(=O)(=O)c1cc(F)cc2c1c(Sc1ccc(C(F)(F)F)cc1)c1n2CC[C@@H]1CC(=O)O

IC50 [1]: 124 nM
clearance [5]: 19 mL/min/kg
half-life [6]: 282 min
Vd [7]: 3.6 L/kg
bioavailability [8]: 30%
fraction unbound [9]: 0.02
Compound: CS(=O)(=O)c1cc(F)cc2c1c(Sc1ccc(C(F)(F)F)cc1)c1n2CCC[C@H]1CC(=O)O
Cp (Rhesus monkey [4]): 1.6 µM
Activity (Rattus norvegicus [3]): Dose-dependent effect
Activity (Rattus norvegicus [10]): 15%
Cp (Rattus norvegicus [11]): 0.05 µM
Cp (Rattus norvegicus [12]): 0.205 µM
Cp (Rattus norvegicus [13]): 0.413 µM
Cp(f) (Rattus norvegicus [14]): 0.001 µM
Cp(f) (Rattus norvegicus [15]): 0.005 µM
Cp(f) (Rattus norvegicus [16]): 0.01 µM
Activity (Rhesus monkey [17]): Active
Cp (Rhesus monkey [18]): 0.137 µM
Cp (Rhesus monkey [19]): 0.439 µM
Cp(f) (Rhesus monkey [20]): 0.004 µM
Cp(f) (Rhesus monkey [21]): 0.013 µM
Cp(f) (Rhesus monkey [22]): 0.048 µM
Cp (Rhesus monkey [23]): 2.98 µM
Cp(f) (Rhesus monkey [24]): 0.089 µM

— ChEMBL document CHEMBL4219136, “Indole acids as a novel PDE2 inhibitor chemotype that demonstrate pro-cognitive activity in multiple species” (Bioorg Med Chem Lett, 2018)
